# Where a SMILES comes first, the peptide text is derived from it.
# Biological target: T1, Neutrophil Elastase (Homo sapiens, UniProt P08246)
# T1 construct: purchased Enzo Life Science BML-AK497-001
# T1 sequence (P08246 30-267): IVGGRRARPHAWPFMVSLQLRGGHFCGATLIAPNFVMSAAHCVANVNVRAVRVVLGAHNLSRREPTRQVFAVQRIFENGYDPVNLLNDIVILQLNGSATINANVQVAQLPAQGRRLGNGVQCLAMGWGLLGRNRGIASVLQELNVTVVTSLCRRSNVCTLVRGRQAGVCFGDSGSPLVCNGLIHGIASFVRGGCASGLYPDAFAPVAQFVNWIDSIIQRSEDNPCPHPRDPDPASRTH
# Assay: Elastase activity inhibitory ability, Neutrophil Elastase colorimetric method
# Assay type: biochemical
# Protocol: In order to confirm the elastase activity inhibitory ability of Regentide-041, it was measured using the Neutrophil Elastase colorimetric method (BML-AK497-001, Enzo Life Science, Pennsylvania, USA). Specifically, after an assay buffer and D.W. were diluted at 1:1, an elastase reagent and a substrate reagent were diluted to have final concentrations of 2.2 μU/μl and 100 μM, respectively. In addition, Regentide-041 was diluted to have final concentrations of 0.1, 1, 10, 50, 100, and 150 μM, respectively. A working solution was prepared by mixing the assay buffer, elastase reagent, and Regentide-041 diluent. […] of the working solution was put in each well of a 96-well plate and reacted at 37° C. for 5 minutes. Next, […] of the substrate reagent was put, and absorbance was measured for 15 minutes at absorbance 405 nm with a Microplate reader (Epoch 2 Microplate spectrophotometer. Biotek, Winooski, VT, USA).
smiles,measurement,value
"CC[C@H](C)[C@H](NC(=O)CNC(=O)CNC(=O)[C@H](CCCNC(=N)N)NC(=O)[C@@H]1CCCN1C(=O)[C@@H](NC(=O)[C@@H](N)CS)[C@@H](C)CC)C(=O)N[C@@H](CS)C(=O)N[C@@H](CC(C)C)C(=O)N[C@H](C(=O)N[C@@H](C)C(=O)N[C@@H](CC(C)C)C(N)=O)C(C)C [Regentide-041, CIPRGGICLVAL-NH2] (H-CIPRGGICLVAL-NH2)",inhibition at 150 µM,52.7 ± 1.2%
